In PubChem BioAssay (NCI):
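Method: 48-hour compound exposure of cells in 96-well plates, five concentrations, linear interpolation of endpoints. At the GI50, growth is halved. TGI marks complete inhibition of growth.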

Key:
Experiment in all cases: DTP human tumour cell line panel, 48 h
A498 renal = test system: A498 renal
A549 NSCLC = test system: A549 NSCLC
HL-60(TB) leukemia = test system: HL-60(TB) leukemia
HOP-62 NSCLC = test system: HOP-62 NSCLC
HT29 colon = test system: HT29 colon
NCI-H460 lung = test system: NCI-H460 lung
NCI-H522 lung = test system: NCI-H522 lung
SK-MEL-28 melanoma = test system: SK-MEL-28 melanoma
SK-MEL-5 melanoma = test system: SK-MEL-5 melanoma
SN12C renal = test system: SN12C renal

| SMILES | GI50 (A498 renal) [µM] | TGI (A498 renal) [µM] | GI50 (A549 NSCLC) [µM] | TGI (A549 NSCLC) [µM] | GI50 (HL-60(TB) leukemia) [µM] | TGI (HL-60(TB) leukemia) [µM] | GI50 (HOP-62 NSCLC) [µM] | TGI (HOP-62 NSCLC) [µM] | GI50 (HT29 colon) [µM] | TGI (HT29 colon) [µM] | GI50 (NCI-H460 lung) [µM] | TGI (NCI-H460 lung) [µM] | GI50 (NCI-H522 lung) [µM] | TGI (NCI-H522 lung) [µM] | GI50 (SK-MEL-28 melanoma) [µM] | TGI (SK-MEL-28 melanoma) [µM] | GI50 (SK-MEL-5 melanoma) [µM] | TGI (SK-MEL-5 melanoma) [µM] | GI50 (SN12C renal) [µM] | TGI (SN12C renal) [µM] |
| --- | --- | --- | --- | --- | --- | --- | --- | --- | --- | --- | --- | --- | --- | --- | --- | --- | --- | --- | --- | --- |
| CN1CCN(Cc2ccc(NC(=O)c3cncc(C#Cc4cncc5[nH]ncc45)c3)cc2C(F)(F)F)CC1 | 0.275 | 1.56 | 1.67 | 6.79 | 0.249 | 1.38 | 0.882 | 4.86 | 0.251 | 6.24 | 1.19 | 5.6 | 1.16 | 8 | 0.208 | 1.96 | 1.17 | 4.58 | 0.906 | 5.73 |
| O=[N+]([O-])C1(CO)COC2(OC1)c1ccccc1-c1ccccc12 |  | > 100 |  | > 100 |  | 58.5 |  | > 100 |  | > 100 |  | > 100 |  | 41 |  | > 100 |  | > 100 |  | > 100 |
| COC(=O)C([O][Ge]([CH3])([CH3])[CH3])c1ccccc1 (centres undefined) | > 100 | > 100 | > 100 | > 100 | 90.8 | > 100 | > 100 | > 100 | > 100 | > 100 | > 100 | > 100 | > 100 | > 100 | > 100 | > 100 | > 100 | > 100 | > 100 | > 100 |
| N#CCCCCCn1c2ccccc2c2c3c(c4c5ccccc5[nH]c4c21)C(=O)N(O)C3=O | 1.72 | 4.94 | 2.78 | 8.12 | 1.48 | 3.5 | 0.468 | 2.79 | 1.86 | 4.66 | 1.19 | 4.96 | 0.164 | 0.411 | 1.8 | 6.61 | 0.403 | 1.5 | 1.29 | 4.92 |
| NC(=S)c1cn(C2OC(CO)C(O)C2O)c2ncnc(N)c12 (centres undefined) | 0.535 | 3.01 | 0.266 | > 100 | 0.18 | 26.7 | 0.065 | 1.95 | 0.181 | 3.96 | 0.212 | 8.15 | 0.168 | 0.554 | 0.112 | 0.483 | 0.223 | 0.975 | 0.201 | 12.5 |
| O=C1c2ccccc2-c2c1c1ccccc1c(=O)n2CCCNCCO |  | 1.28 | 0.267 | 12.8 | 0.175 | 0.88 | 0.317 | 2.61 | 0.33 | 6.68 | 0.111 | 1.56 | 0.689 | 4.33 | 1.24 | 2.95 | 0.198 | 0.877 | 0.454 | 6.25 |
| Cn1cc(C2=C(c3cccc(Cl)c3)C(=O)NC2=O)c2ccccc21 | 8.25 | > 25 | > 25 | > 25 | > 25 | > 25 | > 25 | > 25 | 10.3 | > 25 | > 22.7 | > 25 | > 25 | > 25 | > 17.5 | > 25 | 10.7 | > 25 | 20.6 | > 25 |
| N#CC(N)(C(=O)C(=O)NCCCNC(=O)C(=O)C(N)(C#N)c1ccc(Cl)cc1)c1ccc(Cl)cc1 (centres undefined) |  | > 100 |  | > 100 |  | > 100 |  | > 100 |  | > 100 |  | > 100 |  | > 100 |  | > 100 |  | > 100 |  | > 100 |
